Patent US20210222105A1, “A Microfluidic Cartridge, A Kit And An Assay” (CENTRE FOR CELLULAR AND MOLECULAR PLATFORMS, priority 2018, published 2021)

Assays:
Format in all cases: cell-based, Escherichia coli
[1] = tested on: E. coli ATCC 25922 QC strain; test: Qualitative phenol red colour-change test of microbial growth in microfluidic cartridge and 96 well plate; details: 37° C., results in 3 hour, FIG. 15
Experimental: Qualitative test was performed to check microbial growth in the microfluidic cartridge. Phenol red (about 0.05% w/v) containing cation adjusted Muller Hinton broth was used as susceptibility indicator. Microbial growth changes pH and Phenol red changes color with pH variation. Thus, a colour change could provide a read-out on the susceptibility or resistance of a microorganism. No color change would indicate no growth as a response to antibiotics. Briefly, microfluidic cartridge was cleaned with water and then rinsed with 70% ethanol and then UV sterilized by exposing under UV light for about 30 minutes. To compare the susceptibility test preformed on the microfluidic cartridge and 96 well plate, master mix of about 150 μl was prepared on 96 well plate and 6 μl o the master mix was used in microchamber of the microfluidic cartridge. Both 96 well plate and microfluidic cartridge was sealed with lamination film and incubated at 37° C. and change in color intensity was recorded (illustrated in FIG. 15). […] The results were obtained in 3 hour and design of the microfluidic cartridge was suitable for microbial growth and no cross contamination was observed.

[2] = tested on: E. coli ATCC 25922; test: Agent susceptibility phenotypic assay, microfluidic cartridge compared with 96 well plate; details: 0.5, 1, 2 and 4 μg/ml tested; 0.5 MCF inoculum; cation adjusted Muller Hinton broth; FIG. 14
Experimental: The agent susceptibility assay was carried out in a microfluidic cartridge. This assay was also carried out in a micro-titer plate as a standard reference control. Bacterial/clinical sample grown at suitable turbidity or at least about 0.3 to about 1.0 McFarland unit was transferred to the microchamber. The microchamber had microbial growth sensors (pH sensor) at concentration of about 5 μM to about 50 μM, cation adjusted Muller Hinton broth or suitable microbial growth media, and antibiotics concentration based on CLSI guidelines. The total reaction volume range was from about 6 μl to about 150 μl. Plate/test card were sealed using plate sealer or lamination film and incubated at about 32° C. to about 37° C., at about 300-500 rpm orbital shaking. The change in the fluorescence intensity of pH sensors was measured using fluorescence reader after every 20-60 minutes till about 4-7 hours incubation period. Thus, the susceptibility or resistance of the microorganism was assessed towards the agent.
Agent susceptibility was tested on microfluidic cartridge and the outcome compared with optimized 96 well plate. Phenotypic assay was optimized on 96 well pate, briefly, an overnight grown E. coli ATCC25922 culture was dispersed in cation adjusted muller Hinton broth to prepare inoculum of 0.5 MCF unit.

[3] = tested on: E. coli; test: Agent susceptibility test in microfluidic cartridge with DNA-based pH sensor (FRET, donor fluorescence); details: 5×10^5 CFU/ml, 37° C., up to 6 hour incubation, FIGS. 17, 19
Experimental: About 5 μM sensor was prepared and stored at about 4° C. overnight for equilibration of the sensors. Overnight grown cultures of E. coli, S. aureus, E. faecalis was picked from LB agar plate and dispersed in cation adjusted Mueller Hinton broth with 1% glucose. The concentration of the cells were adjusted to 0.5 MFU. antibiotic dilution was prepared according to CSI guidelines. Stock solutions were prepared in 96 well plate using 23 μl of cation adjusted Muller Hinton broth, 25 μl of desired concentration of antibiotic and 2 μl of 5 μM sensors. Then 50 μl of 1×10^6 CFU/ml inoculum was added in wells to achieve inoculum size 5×10^5 CFU/ml in final assay volume. Each stock solution was loaded on microfluidic cartridge. Microfluidic cartridge was sealed with polypropylene sealing film and incubated at 37° C. with 70% humidity. The change in the donor fluorescence intensity was recorded till 6 hour incubation. Each microchamber of the microfluidic cartridge was image using 1×73 Olympus inverted fluorescence microscope. Images were analyzed using ImageJ version 1.8.0. the average was taken over replicate and standard deviation was calculated (illustrated in FIG. 18).

NCC[C@H](O)C(=O)N[C@@H]1C[C@H](N)[C@@H](O[C@H]2O[C@H](CN)[C@@H](O)[C@H](O)[C@H]2O)[C@H](O)[C@H]1O[C@H]1O[C@H](CO)[C@@H](O)[C@H](N)[C@H]1O [amikacin]
change in colour of indicator dye (phenol red) ([1]; amikacin concentration above 2 μg/ml): no change in the color intensity | change in colour of indicator dye (phenol red) ([1]; at 0.5 and 1 ug/ml amikacin): change in the color of indicator dye | amikacin concentration at which E. coli ATCC 25922 showed susceptibility [2]: 2 µg/mL

CCN1CCN(C(=O)N[C@@H](C(=O)N[C@@H]2C(=O)N3[C@@H]2SC(C)(C)[C@@H]3C(=O)O)c2ccccc2)C(=O)C1=O [piperacillin]
sensitivity cut of value [3]: about 2 μg/ml
